These results are taken from patent US8017612B2, “Piperazine compound and use thereof as a HCV polymerase inhibitor” (priority 2006, dated 2011).

The target of assay [1] is T1, HCV polymerase (NS5B) type 1b (Hepatitis C virus genotype 1b, UniProt P26663).
T1 construct: a region encoding NS5B (J Virol 1991 March, 65(3), 1105-13, 544 amino acids after deletion of 47 amino acids on the C-terminal); 6xHis (C); made in house; host or cells: Escherichia coli
The assay is described as follows: Assay of enzyme (HCV polymerase) inhibitory activity, type 1b enzyme. The assay is classed as biochemical, HCV BK strain (type 1b). The settings on record: HCV polymerase inhibitory activity IC50, 1b, type 1b enzyme. The procedure, abridged: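 NS5B from HCV BK strain (type 1b), C-terminal 47 aa deleted, C-terminal His6-tagged, E. coli-expressed, 0.5 μg/ml, with ~450 nt substrate RNA carrying the 3′ UTR (polyU, 3′X) at 5 μg/ml. Incubation 60 min at 25 °C with 50 μM ATP/GTP/CTP, 2 μM UTP plus [3H]UTP, pH 7.5 Tris.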

For assay [2], the target named is T2, HCV polymerase (NS5B) type 1a (Hepatitis C virus genotype 1a, UniProt P26664).
T2 construct: made in house; host or cells: Escherichia coli (by the 'similar method' of the 1b enzyme)
The assay is described as follows: Assay of enzyme (HCV polymerase) inhibitory activity, type 1a enzyme. The conditions noted are these: HCV polymerase inhibitory activity IC50, 1a, type 1a enzyme. In kind it is biochemical, HCV type 1a (cloned from the blood of patients). The procedure, abridged: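 Patient-derived type 1a NS5B (C-terminal 47-aa deletion, His-tagged, E. coli-expressed) at 1.5 μg/ml was reacted with 5 μg/ml 3′UTR-containing substrate RNA, 50 μM ATP/GTP/CTP, 2 μM UTP plus [3H]UTP, pH 7.5, 25° C for 60 min. TCA-precipitated RNA radioactivity was counted; IC50 from ± compound.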

The structures appear in SMILES notation.

Usually IC50 stands for the concentration that gives 50% inhibition. A higher IC50 goes with weaker potency. For the molecule `CCC(F)(F)c1ccc(CNC(=O)[C@H]2CN(c3cnc4cccnc4n3)CCN2S(=O)(=O)c2ccc(OC(F)(F)F)cc2)cc1` [Example 760, (R)-4-pyrido[2,3-b]pyrazin-3-yl-1-(4-trifluoromethoxy-benzenesulfonyl)-piperazine-2-carboxylic acid 4-(1,1-difluoro-propyl)-benzylamide], the IC50 in assay [1] and in assay [2] was less than 100 nM throughout.
Turning to `CCC(F)(F)c1ccc(CNC(=O)[C@H]2CN(c3cnc4ncccc4n3)CCN2S(=O)(=O)c2ccc(OC(F)(F)F)cc2)cc1` [Example 761, (R)-4-pyrido[2,3-b]pyrazin-2-yl-1-(4-trifluoromethoxy-benzenesulfonyl)-piperazine-2-carboxylic acid 4-(1,1-difluoro-propyl)-benzylamide], the IC50 in assay [1] and in assay [2] was less than 100 nM each time.
As to `O=C(NCc1ccc(OC(F)(F)F)cc1)[C@H]1CN(c2ccc3nccnc3n2)CCN1S(=O)(=O)c1ccc(OC(F)(F)F)cc1` [Example 762, (R)-4-pyrido[2,3-b]pyrazin-6-yl-1-(4-trifluoromethoxy-benzenesulfonyl)-piperazine-2-carboxylic acid 4-trifluoromethoxy-benzylamide], the IC50 in assay [1] and in assay [2] was less than 100 nM throughout.
For `O=C(NCc1ccc(OCC(F)(F)F)cc1)[C@H]1CN(c2cnc3cncnc3n2)CCN1S(=O)(=O)c1ccc(OC(F)(F)F)cc1` [Example 763, (R)-4-pteridin-7-yl-1-(4-trifluoromethoxy-benzenesulfonyl)-piperazine-2-carboxylic acid 4-(2,2,2-trifluoro-ethoxy)-benzylamide], the IC50 in assay [1] and in assay [2] was less than 100 nM in each case.
As to `CCOC(=O)CN(C)c1ccc(S(=O)(=O)N2CCN(c3cnc4cnccc4n3)C[C@@H]2C(=O)NCc2ccc(OC(F)(F)F)cc2)cc1` [Example 764, (methyl-{4-[(R)-4-pyrido[3,4-b]pyrazin-2-yl-2-(4-trifluoromethoxy-benzylcarbamoyl)-piperazine-1-sulfonyl]-phenyl}-amino)-acetic acid ethyl ester], the IC50 in assay [1] and in assay [2] was less than 100 nM in each case.
For `CN(CC(=O)O)c1ccc(S(=O)(=O)N2CCN(c3cnc4cnccc4n3)C[C@@H]2C(=O)NCc2ccc(OC(F)(F)F)cc2)cc1` [Example 765, (methyl-{4-[(R)-4-pyrido[3,4-b]pyrazin-2-yl-2-(4-trifluoromethoxy-benzylcarbamoyl)-piperazine-1-sulfonyl]-phenyl}-amino)-acetic acid], the IC50 in assay [1] and in assay [2] was less than 100 nM throughout.
For the molecule `O=C(NCc1ccc(OC(F)(F)F)cc1)[C@H]1CN(c2cnc3c(Cl)cccc3n2)CCN1S(=O)(=O)c1ccc(OC(F)(F)F)cc1` [Example 766, (R)-4-(5-chloro-quinoxalin-2-yl)-1-(4-trifluoromethoxy-benzenesulfonyl)-piperazine-2-carboxylic acid 4-trifluoromethoxy-benzylamide], the results for the IC50 in assay [1] and in assay [2] were less than 100 nM and 100 to 1000 nM, respectively.
`Cc1ncc2ncc(N3CCN(S(=O)(=O)c4ccc(OC(F)(F)F)cc4)[C@@H](C(=O)NCc4ccc(OC(F)(F)F)cc4)C3)nc2n1` [Example 767, (R)-4-(2-methyl-pteridin-7-yl)-1-(4-trifluoromethoxy-benzenesulfonyl)-piperazine-2-carboxylic acid 4-trifluoromethoxy-benzylamide]: the IC50 in assay [1] and in assay [2] was less than 100 nM in each case.
Take `O=C(NCc1ccc(OC(F)(F)F)cc1)[C@H]1CN(c2nc3ccncc3s2)CCN1S(=O)(=O)c1ccc(OC(F)(F)F)cc1` [Example 768, (R)-4-thiazolo[5,4-c]pyridin-2-yl-1-(4-trifluoromethoxy-benzenesulfonyl)-piperazine-2-carboxylic acid 4-trifluoromethoxy-benzylamide]: the IC50 in assay [1] and in assay [2] was less than 100 nM each time.
Turning to `O=C(NCc1ccc(OC(F)(F)F)cc1)[C@H]1CN(c2cnc3ncccc3n2)CCN1S(=O)(=O)c1ccc(OC(F)(F)F)cc1` [Example 769, (R)-4-pyrido[2,3-b]pyrazin-2-yl-1-(4-trifluoromethoxy-benzenesulfonyl)-piperazine-2-carboxylic acid 4-trifluoromethoxy-benzylamide], the IC50 in assay [1] and in assay [2] was less than 100 nM throughout.
Regarding `O=C(NCc1ccc(OC(F)(F)F)cc1)[C@H]1CN(c2cnc3cccnc3n2)CCN1S(=O)(=O)c1ccc(OC(F)(F)F)cc1` [Example 770, (R)-4-pyrido[2,3-b]pyrazin-3-yl-1-(4-trifluoromethoxy-benzenesulfonyl)-piperazine-2-carboxylic acid 4-trifluoromethoxy-benzylamide], the half-inhibitory concentration (IC50) in assay [1] and in assay [2] was less than 100 nM in each case.
Turning to `O=C(NCc1ccc(OC(F)(F)F)cc1)[C@H]1CN(c2ccc3cnccc3n2)CCN1S(=O)(=O)c1ccc(OC(F)(F)F)cc1` [Example 771, (R)-4-[1,6]naphthyridin-2-yl-1-(4-trifluoromethoxy-benzenesulfonyl)-piperazine-2-carboxylic acid 4-trifluoromethoxy-benzylamide], the 50% inhibitory concentration (IC50) in assay [1] and in assay [2] was less than 100 nM in each case.
`O=C(NCc1ccc(SC(F)(F)F)cc1)[C@H]1CN(c2cnc3cncnc3n2)CCN1S(=O)(=O)c1ccc(OC(F)(F)F)cc1` [Example 772, (R)-4-pteridin-7-yl-1-(4-trifluoromethoxy-benzenesulfonyl)-piperazine-2-carboxylic acid 4-trifluoromethylsulfanyl-benzylamide]: the IC50 in assay [1] and in assay [2] was less than 100 nM in each case.
For the molecule `CCCc1ccc(CNC(=O)[C@H]2CN(c3cnc4cncnc4n3)CCN2S(=O)(=O)c2ccc(OC(F)(F)F)c(CCCC(=O)O)c2)cc1` [Example 773, 4-{5-[(R)-2-(4-propyl-benzylcarbamoyl)-4-pteridin-7-yl-piperazine-1-sulfonyl]-2-trifluoromethoxy-phenyl}-butyric acid], the IC50 in assay [1] and in assay [2] was less than 100 nM in each case.
For the molecule `O=C(O)c1ccc(N2CCN(S(=O)(=O)c3ccc(OC(F)(F)F)cc3)[C@@H](C(=O)NCc3ccc(OC(F)(F)F)cc3)C2)nc1` [Example 774, 6-[(R)-4-(4-trifluoromethoxy-benzenesulfonyl)-3-(4-trifluoromethoxy-benzylcarbamoyl)-piperazin-1-yl]-nicotinic acid], the IC50 in assay [1] and in assay [2] was less than 100 nM throughout.
Turning to `O=C(NCc1ccc(OC(F)(F)F)cc1)[C@H]1CN(c2cnc3cnccc3n2)CCN1S(=O)(=O)c1ccc(Br)s1` [Example 775, (R)-1-(5-bromo-thiophene-2-sulfonyl)-4-pyrido[3,4-b]pyrazin-2-yl-piperazine-2-carboxylic acid 4-trifluoromethoxy-benzylamide], the IC50 in assay [1] and in assay [2] was less than 100 nM each time.
In the case of `O=C(NCc1ccc(OC(F)(F)F)cc1)[C@H]1CN(c2nc3cccnc3s2)CCN1S(=O)(=O)c1ccc(OC(F)(F)F)cc1` [Example 776, (R)-4-thiazolo[5,4-b]pyridin-2-yl-1-(4-trifluoromethoxy-benzenesulfonyl)-piperazine-2-carboxylic acid 4-trifluoromethoxy-benzylamide], the IC50 in assay [1] and in assay [2] was less than 100 nM in each case.
Take `CCCc1ccc(CNC(=O)[C@H]2CN(c3cnc4cnccc4n3)CCN2S(=O)(=O)c2ccc(I)cc2)cc1` [Example 777, (R)-1-(4-iodo-benzenesulfonyl)-4-pyrido[3,4-b]pyrazin-2-yl-piperazine-2-carboxylic acid 4-propyl-benzylamide]: the IC50 in assay [1] and in assay [2] was less than 100 nM throughout.
For the molecule `CCCc1ccc(CNC(=O)[C@H]2CN(c3cnc4cnccc4n3)CCN2S(=O)(=O)c2ccc(-c3cccc(O)c3)cc2)cc1` [Example 778, (R)-1-(3′-hydroxy-biphenyl-4-sulfonyl)-4-pyrido[3,4-b]pyrazin-2-yl-piperazine-2-carboxylic acid 4-propyl-benzylamide], the half-maximal inhibitory concentration (IC50) in assay [1] and in assay [2] was less than 100 nM each time.
As to `CCCc1ccc(CNC(=O)[C@H]2CN(c3cnc4cnccc4n3)CCN2S(=O)(=O)c2ccc(-c3cccc(OCC(=O)O)c3)cc2)cc1` [Example 779, {4′-[(R)-2-(4-propyl-benzylcarbamoyl)-4-pyrido[3,4-b]pyrazin-2-yl-piperazine-1-sulfonyl]-biphenyl-3-yloxy}-acetic acid], the 50% inhibitory concentration (IC50) in assay [1] and in assay [2] was less than 100 nM in each case.
As for `O=C(O)c1cccc2nc(N3CCN(S(=O)(=O)c4ccc(OC(F)(F)F)cc4)[C@@H](C(=O)NCc4ccc(OC(F)(F)F)cc4)C3)cnc12` [Example 780, 2-[(R)-4-(4-trifluoromethoxy-benzenesulfonyl)-3-(4-trifluoromethoxy-benzylcarbamoyl)-piperazin-1-yl]-quinoxaline-5-carboxylic acid], the results for the IC50 in assay [1] and in assay [2] were less than 100 nM and 100 to 1000 nM, respectively.
As for `O=C(O)c1cccc2ncc(N3CCN(S(=O)(=O)c4ccc(OC(F)(F)F)cc4)[C@@H](C(=O)NCc4ccc(OC(F)(F)F)cc4)C3)nc12` [Example 781, 3-[(R)-4-(4-trifluoromethoxy-benzenesulfonyl)-3-(4-trifluoromethoxy-benzylcarbamoyl)-piperazin-1-yl]-quinoxaline-5-carboxylic acid], the IC50 in assay [1] and in assay [2] was less than 100 nM each time.
